Assay results published in patent US11945822B2, “Pyrazolo-triazine and/or pyrazolo-pxrimidine derivatives as selective inhibitor of cyclin dependent kinase” (QURIENT CO., LTD., priority 2018, dated 2024).

Columns and labels:
MV4-11 = experiment: Cellular MV4-11 viability assay (CellTiter-Glo, 72 hours); type: cell-based; details: Homo sapiens
Method in brief: (§1)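 Cells plated in 96 wells and exposed to compound 72 h at 37 °C, 5% CO2, final DMSO below 0.1%, DMSO control. Viability by CellTiter-Glo luminescence, duplicate.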

MOLT-4 = experiment: Cellular MOLT-4 viability assay (CellTiter-Glo, 72 hours); type: cell-based; details: Homo sapiens, MOLT4 viability assay
Method in brief: as §1

CDK1/Cyclin B = target: T1, CDK1/Cyclin B (Homo sapiens, UniProt P06493); experiment: Enzymatic assay for CDK1 (FRET based LANCE Ultra kinase assay); type: biochemical; details: read-out: CDK1 enzymatic activity (IC50 range)
T1 construct: purchased Invitrogen PR4768C
Method in brief: (§2)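 LANCE Ultra TR-FRET: ULight-MBP peptide (68 nM) with ATP at Km, […], 60 min at 23° C. EDTA plus Eu-anti-phospho-MBP added, another 60 min, then 665/615 nm emission read. Compounds tested as 8-dose 4-fold DMSO dilutions.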

CDK2/Cyclin A = target: T2, CDK2/Cyclin A (Homo sapiens, UniProt P24941); experiment: Enzymatic assay for CDK2 (FRET based LANCE Ultra kinase assay); type: biochemical; details: read-out: CDK2 enzymatic activity (IC50 range)
T2 construct: purchased Invitrogen PV6290
Method in brief: as §2

CDK5/p25 = target: T3, CDK5/p25 (Homo sapiens, UniProt Q00535); experiment: Enzymatic assay for CDK5 (FRET based LANCE Ultra kinase assay); type: biochemical; details: read-out: CDK5 enzymatic activity (IC50 range)
T3 construct: purchased Invitrogen PR8543B
Method in brief: as §2

H460 = experiment: Cellular H460 viability assay (CellTiter-Glo, 72 hours); type: cell-based; details: Homo sapiens, NCI-H460
Method in brief: as §1

CDK7/Cyclin H/MNAT1 = target: T4, CDK7/Cyclin H/MNAT1 (Homo sapiens, UniProt P50613); experiment: Enzymatic assay for CDK7 (FRET based LANCE Ultra kinase assay); type: biochemical; details: for IC50: read-out: CDK7 enzymatic activity (IC50 range)
T4 construct: purchased Invitrogen PR6749B
Method in brief: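 LANCE Ultra TR-FRET kinase assay using a ULight-labeled peptide substrate and a Eu-labeled anti-phospho antibody, with ATP at its Km. Purified CDK/cyclin complex was added to compound after brief centrifugation.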

RPMI-8226 = experiment: Cellular RPMI-8226 viability assay (CellTiter-Glo, 72 hours); type: cell-based; details: Homo sapiens
Method in brief: as §1

HCT116 = experiment: Cellular HCT116 viability assay (CellTiter-Glo, 72 hours); type: cell-based; details: Homo sapiens, HCT-116
Method in brief: as §1

T4 sequence (P50613 whole entry): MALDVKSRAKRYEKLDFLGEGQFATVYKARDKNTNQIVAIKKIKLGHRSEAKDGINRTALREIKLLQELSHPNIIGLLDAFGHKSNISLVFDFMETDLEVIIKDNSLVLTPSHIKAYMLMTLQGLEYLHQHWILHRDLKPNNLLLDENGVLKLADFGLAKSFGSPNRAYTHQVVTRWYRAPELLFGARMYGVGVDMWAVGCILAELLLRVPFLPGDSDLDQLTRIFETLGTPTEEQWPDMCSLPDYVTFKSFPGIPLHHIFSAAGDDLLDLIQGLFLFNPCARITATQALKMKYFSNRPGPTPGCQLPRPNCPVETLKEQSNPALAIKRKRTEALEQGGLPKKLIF
T4 sequence (P51946 whole entry partner): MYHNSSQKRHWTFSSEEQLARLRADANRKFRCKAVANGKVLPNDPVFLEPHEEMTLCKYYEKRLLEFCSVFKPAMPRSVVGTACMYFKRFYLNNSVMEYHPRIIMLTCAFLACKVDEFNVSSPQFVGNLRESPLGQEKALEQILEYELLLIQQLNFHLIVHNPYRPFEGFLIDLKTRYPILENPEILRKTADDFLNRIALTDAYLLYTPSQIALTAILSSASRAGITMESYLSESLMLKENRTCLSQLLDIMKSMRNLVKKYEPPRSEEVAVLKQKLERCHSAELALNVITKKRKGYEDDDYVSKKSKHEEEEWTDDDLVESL
T4 sequence (P51948 whole entry partner): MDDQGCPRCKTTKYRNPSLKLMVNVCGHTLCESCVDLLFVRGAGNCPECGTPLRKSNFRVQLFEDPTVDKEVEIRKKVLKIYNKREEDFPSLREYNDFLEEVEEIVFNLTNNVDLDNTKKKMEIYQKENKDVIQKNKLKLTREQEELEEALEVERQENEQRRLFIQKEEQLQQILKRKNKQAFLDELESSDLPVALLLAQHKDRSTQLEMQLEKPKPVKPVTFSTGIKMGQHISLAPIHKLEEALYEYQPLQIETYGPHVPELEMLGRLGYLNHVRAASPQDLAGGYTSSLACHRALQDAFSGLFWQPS
T3 sequence (Q00535 whole entry): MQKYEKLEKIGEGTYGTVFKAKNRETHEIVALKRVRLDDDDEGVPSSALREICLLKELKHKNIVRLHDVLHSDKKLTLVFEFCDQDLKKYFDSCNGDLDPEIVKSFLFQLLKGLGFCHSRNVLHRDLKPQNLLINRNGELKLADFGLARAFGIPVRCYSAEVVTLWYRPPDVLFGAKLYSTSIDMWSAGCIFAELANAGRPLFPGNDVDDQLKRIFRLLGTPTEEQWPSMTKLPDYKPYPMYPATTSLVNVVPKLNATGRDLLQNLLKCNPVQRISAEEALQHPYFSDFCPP
T3 sequence (Q15078 99-307 partner limits assumed): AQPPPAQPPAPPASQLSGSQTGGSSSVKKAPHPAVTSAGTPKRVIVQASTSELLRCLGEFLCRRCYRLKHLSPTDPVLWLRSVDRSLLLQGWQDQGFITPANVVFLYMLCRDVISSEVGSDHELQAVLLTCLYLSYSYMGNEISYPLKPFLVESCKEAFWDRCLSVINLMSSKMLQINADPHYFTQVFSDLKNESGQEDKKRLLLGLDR
T1 sequence (P06493 whole entry): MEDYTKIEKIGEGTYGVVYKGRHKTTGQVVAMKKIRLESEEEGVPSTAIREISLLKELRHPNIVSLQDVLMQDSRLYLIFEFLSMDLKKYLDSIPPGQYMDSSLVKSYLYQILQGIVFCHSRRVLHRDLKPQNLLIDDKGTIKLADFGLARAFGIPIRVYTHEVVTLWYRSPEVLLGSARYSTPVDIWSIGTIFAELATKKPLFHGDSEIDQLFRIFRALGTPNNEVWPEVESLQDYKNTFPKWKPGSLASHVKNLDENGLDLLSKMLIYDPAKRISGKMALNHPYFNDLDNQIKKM
T1 sequence (P14635 whole entry partner): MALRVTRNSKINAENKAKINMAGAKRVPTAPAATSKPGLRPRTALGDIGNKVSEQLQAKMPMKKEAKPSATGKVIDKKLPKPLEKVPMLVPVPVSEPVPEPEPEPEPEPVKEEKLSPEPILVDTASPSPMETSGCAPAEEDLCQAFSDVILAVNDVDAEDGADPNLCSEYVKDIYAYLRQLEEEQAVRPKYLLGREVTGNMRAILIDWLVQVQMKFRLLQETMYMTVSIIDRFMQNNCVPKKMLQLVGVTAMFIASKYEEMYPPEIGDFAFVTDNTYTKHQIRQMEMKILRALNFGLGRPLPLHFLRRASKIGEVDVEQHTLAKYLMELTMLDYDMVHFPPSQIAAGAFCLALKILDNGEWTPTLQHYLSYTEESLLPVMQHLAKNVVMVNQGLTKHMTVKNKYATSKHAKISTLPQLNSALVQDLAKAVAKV

SMILES | IC50 (MV4-11) [µM] | IC50 (MOLT-4) [µM] | IC50 (CDK1/Cyclin B) [µM] | IC50 (CDK2/Cyclin A) [µM] | IC50 (CDK5/p25) [µM] | IC50 (H460) [µM] | CDK1/CDK7: Selectivity of CDK7 inhibition over CDK1 inhibition (CDK7/Cyclin H/MNAT1) | CDK2/CDK7: Selectivity of CDK7 inhibition over CDK2 inhibition (CDK7/Cyclin H/MNAT1) | CDK5/CDK7: Selectivity of CDK7 inhibition over CDK5 inhibition (CDK7/Cyclin H/MNAT1) | IC50 (CDK7/Cyclin H/MNAT1) [µM] | IC50 (RPMI-8226) [µM] | IC50 (HCT116) [µM]
CC(C)c1cnn2c(NCc3ccccc3-c3nc4ccccc4o3)nc(N3CCC(N)CC3)nc12 [Compound 97] | < 1 | 1 to 10 | 0.1 to 1 | 0.1 to 1 | 0.1 to 1 | < 1 | B (B=less than 200 fold, but greater than 20 fold) | B (B=less than 200 fold, but greater than 20 fold) | B (B=less than 200 fold, but greater than 20 fold) | < 0.1 | < 1 | < 1
CC(C)Oc1ccc2cn(-c3ccccc3CNc3nc(N4CCC(N)CC4)nc4c(C(C)C)cnn34)nc2c1 [Compound 107] | < 1 | 1 to 10 | > 1 | 0.1 to 1 | 0.1 to 1 | < 1 | A (A=greater than 200 fold) | A (A=greater than 200 fold) | B (B=less than 200 fold, but greater than 20 fold) | < 0.1 | < 1 | –
CC(C)c1cnn2c(NCc3ccccc3-n3cccn3)nc(N3CCC(C)(N)CC3)nc12 [Compound 27] | < 1 | 1 to 10 | 0.1 to 1 | 0.1 to 1 | < 0.1 | < 1 | A (A=greater than 200 fold) | B (B=less than 200 fold, but greater than 20 fold) | B (B=less than 200 fold, but greater than 20 fold) | < 0.1 | < 1 | < 1
CC(C)c1cnn2c(NCc3ccccc3-c3cc4c(F)cccc4[nH]3)nc(N3CCC(N)CC3)nc12 [Compound 112] | < 1 | < 1 | 0.1 to 1 | 0.1 to 1 | < 0.1 | < 1 | B (B=less than 200 fold, but greater than 20 fold) | B (B=less than 200 fold, but greater than 20 fold) | C (C=less than 20 fold) | < 0.1 | < 1 | < 1
CC(C)c1cnn2c(NCc3ccccc3-c3ncc4ccccc4n3)nc(N3CCC(N)CC3)nc12 [Compound 77] | < 1 | 1 to 10 | 0.1 to 1 | 0.1 to 1 | 0.1 to 1 | < 1 | A (A=greater than 200 fold) | B (B=less than 200 fold, but greater than 20 fold) | B (B=less than 200 fold, but greater than 20 fold) | < 0.1 | < 1 | –
CC(C)c1cnn2c(NCc3ccccc3-n3cccn3)nc(-c3ccc(Cl)c(C4CCNCC4)c3)nc12 [Compound 170] | < 1 | 1 to 10 | > 1 | > 1 | 0.1 to 1 | < 1 | A (A=greater than 200 fold) | B (B=less than 200 fold, but greater than 20 fold) | B (B=less than 200 fold, but greater than 20 fold) | < 0.1 | 1 to 10 | –
CC(C)c1cnn2c(NCc3ccccc3-c3cn4ccccc4n3)nc(N3CCC(N)CC3)nc12 [Compound 110] | < 1 | < 1 | 0.1 to 1 | < 0.1 | < 0.1 | < 1 | B (B=less than 200 fold, but greater than 20 fold) | B (B=less than 200 fold, but greater than 20 fold) | C (C=less than 20 fold) | < 0.1 | < 1 | –
CC(C)c1cnn2c(NCc3cccc4ccc(C5CC5)nc34)nc(N3CCC(N)CC3)nc12 [Compound 71] | 1 to 10 | 1 to 10 | > 1 | > 1 | 0.1 to 1 | 1 to 10 | B (B=less than 200 fold, but greater than 20 fold) | B (B=less than 200 fold, but greater than 20 fold) | B (B=less than 200 fold, but greater than 20 fold) | < 0.1 | 1 to 10 | –
